The assay is described as follows: Cytotoxicity against mouse B16 cells assessed as decrease in cell viability after 48 hrs by MTT assay. In kind it is functional, cell-based. As to conditions: B16, 48 h. (Tetrazolium assays rely on reduction of a dye to a coloured formazan, in cell work by metabolically active cells.)

Broadly, the IC50 is the concentration that gives 50% inhibition. Turning to `COc1ccc(Cn2cc(-c3ccc(OC)cc3)nn2)cc1`, the half-maximal inhibitory concentration (IC50) was greater than 100 µM. To `Cc1ccc(C(O)c2cn(Cc3ccccc3)nn2)cc1` (stereo unspecified) belongs greater than 100 µM; to `COc1ccc(-c2cn(C[C@H]3COC(C)(C)O3)nn2)cc1`, greater than 100 µM; to `COc1ccc(C(O)c2cn(C[C@H]3COC(C)(C)O3)nn2)cc1` (stereo partly specified), greater than 100 µM. To `CCOC(=O)Cn1cc(C(O)c2ccc3ccccc3c2)nn1` (stereo unspecified) belongs greater than 100 µM; to `COc1ccc(Cn2cc(C(O)c3ccc(OC)c(OC)c3OC)nn2)cc1` (stereo unspecified), greater than 100 µM; to `COc1ccc(Cn2cc(-c3ccc([N+](=O)[O-])cc3)nn2)cc1`, 19.1 µM.

On to `CC1(C)OC[C@H](Cn2cc(-c3ccc(C(F)(F)F)cc3)nn2)O1`, for which the IC50 is greater than 100 µM.

For the molecule `COc1ccc(Cn2cc(-c3ccc(C(F)(F)F)cc3)nn2)cc1`, the IC50 was found to be 17.4 µM. For the molecule `COc1ccc(Cn2cc(-c3ccc4ccccc4c3)nn2)cc1`, the 50% inhibitory concentration (IC50) is greater than 100 µM. For `CCOC(=O)Cn1cc(-c2ccc([N+](=O)[O-])cc2)nn1` the value was greater than 100 µM. To `COc1ccc(-c2cn(C[C@H]3COC(C)(C)O3)nn2)c(OC)c1OC` belongs greater than 100 µM. For `O=[N+]([O-])c1ccc(-c2cn(Cc3ccccc3)nn2)cc1` the value was 5.12 µM; for `COc1ccc(Cn2cc(-c3ccc(C)cc3)nn2)cc1`, 19.5 µM.

As to `COc1ccc(C(O)c2cn(C[C@H]3COC(C)(C)O3)nn2)c(OC)c1OC` (stereo partly specified), the IC50 is greater than 100 µM. To `CC1(C)OC[C@H](Cn2cc(-c3ccc4ccccc4c3)nn2)O1` belongs 12 µM. To `COc1ccc(-c2cn(CCO)nn2)cc1` belongs greater than 100 µM.

As to `CC1(C)OC[C@H](Cn2cc(C(O)c3ccc([N+](=O)[O-])cc3)nn2)O1` (stereo partly specified), the half-maximal inhibitory concentration (IC50) is greater than 100 µM. To `COc1ccc(C(O)c2cn(CCO)nn2)c(OC)c1OC` (stereo unspecified) belongs greater than 100 µM. To `Cc1ccc(-c2cn(C[C@H]3COC(C)(C)O3)nn2)cc1` belongs greater than 100 µM; to `CC1(C)OC[C@H](Cn2cc(-c3ccc([N+](=O)[O-])cc3)nn2)O1`, greater than 100 µM; to `COc1ccc(Cn2cc(C(O)c3ccc(C)cc3)nn2)cc1` (stereo unspecified), greater than 100 µM.

In the case of `COc1ccc(Cn2cc(C(O)c3ccc(OC)cc3)nn2)cc1` (stereo unspecified), the IC50 is greater than 100 µM.

Take `COc1ccc(Cn2cc(C(O)c3ccc([N+](=O)[O-])cc3)nn2)cc1` (stereo unspecified): the half-inhibitory concentration (IC50) was greater than 100 µM.

Take `COc1ccc(C(O)c2cn(CCO)nn2)cc1` (stereo unspecified): the IC50 is greater than 100 µM. To `CCOC(=O)Cn1cc(-c2ccc3ccccc3c2)nn1` belongs greater than 100 µM.

On to `Cc1ccc(C(O)c2cn(C[C@H]3COC(C)(C)O3)nn2)cc1` (stereo partly specified), for which the IC50 is greater than 100 µM. To `COc1ccc(-c2cn(Cc3ccccc3)nn2)cc1` belongs greater than 100 µM; to `OC(c1ccc(C(F)(F)F)cc1)c1cn(Cc2ccccc2)nn1` (stereo unspecified), greater than 100 µM. Regarding `CCOC(=O)Cn1cc(-c2ccc(OC)c(OC)c2OC)nn1`, the IC50 was greater than 100 µM.

Turning to `OCCn1cc(-c2ccc(C(F)(F)F)cc2)nn1`, the half-maximal inhibitory concentration (IC50) is greater than 100 µM. For the molecule `COc1ccc(-c2cn(Cc3ccccc3)nn2)c(OC)c1OC`, the 50% inhibitory concentration (IC50) is 27.5 µM. For `c1ccc(Cn2cc(-c3ccc4ccccc4c3)nn2)cc1` the value was 3.89 µM; for `COc1ccc(Cn2cc(-c3ccc(OC)c(OC)c3OC)nn2)cc1`, greater than 100 µM; for `Cc1ccc(-c2cn(CCO)nn2)cc1`, greater than 100 µM. With `OCCn1cc(-c2ccc3ccccc3c2)nn1`, the IC50 was greater than 100 µM.

Turning to `FC(F)(F)c1ccc(-c2cn(Cc3ccccc3)nn2)cc1`, the IC50 is greater than 100 µM. To `OC(c1ccc2ccccc2c1)c1cn(Cc2ccccc2)nn1` (stereo unspecified) belongs 28.8 µM; to `Cc1ccc(-c2cn(Cc3ccccc3)nn2)cc1`, greater than 100 µM; to `CC1(C)OCC(Cn2cc(C(O)c3ccc(C(F)(F)F)cc3)nn2)O1` (racemic), greater than 100 µM. For `CC1(C)OCC(Cn2cc(C(O)c3ccc4ccccc4c3)nn2)O1` (racemic) the value was 26.9 µM. To `Cc1ccc(-c2cn(CC3COC(C)(C)O3)nn2)cc1` (racemic) belongs 41.7 µM; to `CC1(C)OCC(Cn2cc(-c3ccc([N+](=O)[O-])cc3)nn2)O1` (racemic), greater than 100 µM; to `CC1(C)OCC(Cn2cc(-c3ccc4ccccc4c3)nn2)O1` (racemic), 6.6 µM. Regarding `CC1(C)OCC(Cn2cc(-c3ccc(C(F)(F)F)cc3)nn2)O1` (racemic), the IC50 was 13.5 µM. `Cc1ccc(C(O)c2cn(CC3COC(C)(C)O3)nn2)cc1` (racemic): the IC50 is greater than 100 µM.

These data come from ChEMBL document CHEMBL3867425, “Synthesis and cytotoxicity evaluation of aryl triazolic derivatives and their hydroxymethine homologues against B16 melanoma cell line” (Eur J Med Chem, 2016).
